Here are results for three molecules from ChEMBL document CHEMBL1152560, “Substituted 2-arylbenzothiazoles as kinase inhibitors: hit-to-lead optimization” (Bioorg Med Chem, 2009).

Assay [1] addresses SRSF protein kinase 3 (Homo sapiens) (UniProt Q9UPE1). As to the kind of experiment: Residual activity of STK23 at 1 uM by microplate scintillation counting.
Assay [2] has as its target T1, cGMP-dependent protein kinase 1 (Homo sapiens) (UniProt Q13976).
T1 sequence (whole entry): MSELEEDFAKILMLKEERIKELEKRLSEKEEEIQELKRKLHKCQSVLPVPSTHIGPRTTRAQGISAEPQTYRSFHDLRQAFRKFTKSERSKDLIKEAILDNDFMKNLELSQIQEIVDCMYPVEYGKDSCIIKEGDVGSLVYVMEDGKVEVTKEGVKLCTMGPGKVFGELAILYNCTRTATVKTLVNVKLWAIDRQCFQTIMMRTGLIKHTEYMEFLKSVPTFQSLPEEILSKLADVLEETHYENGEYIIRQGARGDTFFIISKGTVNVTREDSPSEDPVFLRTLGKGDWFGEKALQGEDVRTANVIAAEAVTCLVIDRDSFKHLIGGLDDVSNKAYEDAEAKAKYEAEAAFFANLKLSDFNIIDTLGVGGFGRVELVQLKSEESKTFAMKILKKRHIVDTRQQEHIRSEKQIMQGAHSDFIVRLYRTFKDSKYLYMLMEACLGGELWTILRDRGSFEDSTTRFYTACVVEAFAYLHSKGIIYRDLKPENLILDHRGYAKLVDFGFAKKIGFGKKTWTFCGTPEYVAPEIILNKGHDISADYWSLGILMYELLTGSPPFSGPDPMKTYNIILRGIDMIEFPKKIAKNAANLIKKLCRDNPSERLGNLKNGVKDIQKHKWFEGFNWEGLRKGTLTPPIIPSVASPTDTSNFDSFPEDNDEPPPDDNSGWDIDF
As to the kind of experiment: Residual activity of PRKG1 at 0.1 uM by microplate scintillation counting.

The target of assay [3] is Insulin receptor (Homo sapiens) (UniProt P06213). As to the kind of experiment: Residual activity of INSR at 0.1 uM by microplate scintillation counting.
In assay [4] the target is BDNF/NT-3 growth factors receptor (Homo sapiens) (UniProt Q16620). Briefly: Residual activity of TRK-B at 1 uM by microplate scintillation counting.
Sequence of BDNF/NT-3 growth factors receptor (Homo sapiens) (Q16620 32-822 limits assumed): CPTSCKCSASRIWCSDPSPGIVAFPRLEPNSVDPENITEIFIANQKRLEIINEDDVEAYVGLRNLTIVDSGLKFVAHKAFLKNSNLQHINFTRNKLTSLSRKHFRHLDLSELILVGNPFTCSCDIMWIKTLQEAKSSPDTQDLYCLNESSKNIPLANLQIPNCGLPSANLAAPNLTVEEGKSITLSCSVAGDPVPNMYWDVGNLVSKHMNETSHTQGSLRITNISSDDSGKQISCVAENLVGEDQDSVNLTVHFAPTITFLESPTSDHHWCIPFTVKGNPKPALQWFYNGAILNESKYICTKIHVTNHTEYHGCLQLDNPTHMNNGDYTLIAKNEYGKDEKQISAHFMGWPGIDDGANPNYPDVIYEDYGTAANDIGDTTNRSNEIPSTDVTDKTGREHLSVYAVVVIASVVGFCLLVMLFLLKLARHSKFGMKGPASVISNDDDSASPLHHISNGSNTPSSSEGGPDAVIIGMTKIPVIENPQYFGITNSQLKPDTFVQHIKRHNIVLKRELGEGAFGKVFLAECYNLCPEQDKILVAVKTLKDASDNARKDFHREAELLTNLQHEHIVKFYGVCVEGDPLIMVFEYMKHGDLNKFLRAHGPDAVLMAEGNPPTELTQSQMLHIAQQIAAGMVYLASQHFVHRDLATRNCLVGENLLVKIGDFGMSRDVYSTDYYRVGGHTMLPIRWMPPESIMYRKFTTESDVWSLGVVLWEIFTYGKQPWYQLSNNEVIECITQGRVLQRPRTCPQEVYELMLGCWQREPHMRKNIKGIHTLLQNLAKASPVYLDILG
Assay [5] has as its target CDK6/cyclin D1 (Homo sapiens) (UniProt P24385+Q00534). Briefly: Residual activity of CDK6/Cyclin D1 at 10 uM by microplate scintillation counting. Format: protein-complex assay.
The target of assay [6] is Fibroblast growth factor receptor 2 (Homo sapiens) (UniProt P21802). As to the kind of experiment: Residual activity of FGFR2 at 10 uM by microplate scintillation counting.
Assay [7] concerns the target T2, Ephrin type-B receptor 4 (Homo sapiens) (UniProt P54760).
T2 sequence (whole entry): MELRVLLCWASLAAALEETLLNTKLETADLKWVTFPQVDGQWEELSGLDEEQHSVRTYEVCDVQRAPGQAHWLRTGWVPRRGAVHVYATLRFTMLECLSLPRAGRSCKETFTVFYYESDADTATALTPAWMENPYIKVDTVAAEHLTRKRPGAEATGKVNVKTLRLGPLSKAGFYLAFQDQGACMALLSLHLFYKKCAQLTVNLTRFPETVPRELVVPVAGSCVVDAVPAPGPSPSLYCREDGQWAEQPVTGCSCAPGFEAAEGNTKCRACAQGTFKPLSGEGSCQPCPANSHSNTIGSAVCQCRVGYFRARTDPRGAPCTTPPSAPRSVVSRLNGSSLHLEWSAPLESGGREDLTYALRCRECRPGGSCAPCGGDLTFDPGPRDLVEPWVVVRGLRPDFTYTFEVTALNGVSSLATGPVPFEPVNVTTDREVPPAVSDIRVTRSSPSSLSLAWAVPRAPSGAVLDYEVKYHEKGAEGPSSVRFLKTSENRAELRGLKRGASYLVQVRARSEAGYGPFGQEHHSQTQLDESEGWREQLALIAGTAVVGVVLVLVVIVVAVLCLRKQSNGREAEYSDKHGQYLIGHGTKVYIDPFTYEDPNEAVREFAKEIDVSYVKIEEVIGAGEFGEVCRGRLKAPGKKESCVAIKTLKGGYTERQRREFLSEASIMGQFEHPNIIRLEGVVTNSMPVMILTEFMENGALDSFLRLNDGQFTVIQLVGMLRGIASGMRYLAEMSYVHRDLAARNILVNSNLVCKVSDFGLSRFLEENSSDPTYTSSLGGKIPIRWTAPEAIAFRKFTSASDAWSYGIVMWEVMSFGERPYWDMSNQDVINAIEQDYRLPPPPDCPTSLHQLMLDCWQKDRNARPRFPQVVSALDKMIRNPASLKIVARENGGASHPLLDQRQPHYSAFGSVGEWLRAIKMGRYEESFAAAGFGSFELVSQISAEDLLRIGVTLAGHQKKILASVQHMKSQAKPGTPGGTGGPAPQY
As to the kind of experiment: Residual activity of EPHB4 at 1 uM by microplate scintillation counting.

In assay [8] the target is Macrophage-stimulating protein receptor (Homo sapiens) (UniProt Q04912). Briefly: Residual activity of RON at 1 uM by microplate scintillation counting.
Sequence of Macrophage-stimulating protein receptor (Homo sapiens) (Q04912 25-304 limits assumed): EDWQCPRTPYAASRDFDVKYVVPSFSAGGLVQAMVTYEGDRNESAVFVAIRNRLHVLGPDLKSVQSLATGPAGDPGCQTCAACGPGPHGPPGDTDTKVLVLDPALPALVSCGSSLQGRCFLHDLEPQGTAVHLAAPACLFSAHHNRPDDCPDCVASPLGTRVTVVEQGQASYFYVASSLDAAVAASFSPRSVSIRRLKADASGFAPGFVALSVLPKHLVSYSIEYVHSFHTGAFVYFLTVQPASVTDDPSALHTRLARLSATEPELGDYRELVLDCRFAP
Sequence of Macrophage-stimulating protein receptor (Homo sapiens) (Q04912 310-1400 limits assumed): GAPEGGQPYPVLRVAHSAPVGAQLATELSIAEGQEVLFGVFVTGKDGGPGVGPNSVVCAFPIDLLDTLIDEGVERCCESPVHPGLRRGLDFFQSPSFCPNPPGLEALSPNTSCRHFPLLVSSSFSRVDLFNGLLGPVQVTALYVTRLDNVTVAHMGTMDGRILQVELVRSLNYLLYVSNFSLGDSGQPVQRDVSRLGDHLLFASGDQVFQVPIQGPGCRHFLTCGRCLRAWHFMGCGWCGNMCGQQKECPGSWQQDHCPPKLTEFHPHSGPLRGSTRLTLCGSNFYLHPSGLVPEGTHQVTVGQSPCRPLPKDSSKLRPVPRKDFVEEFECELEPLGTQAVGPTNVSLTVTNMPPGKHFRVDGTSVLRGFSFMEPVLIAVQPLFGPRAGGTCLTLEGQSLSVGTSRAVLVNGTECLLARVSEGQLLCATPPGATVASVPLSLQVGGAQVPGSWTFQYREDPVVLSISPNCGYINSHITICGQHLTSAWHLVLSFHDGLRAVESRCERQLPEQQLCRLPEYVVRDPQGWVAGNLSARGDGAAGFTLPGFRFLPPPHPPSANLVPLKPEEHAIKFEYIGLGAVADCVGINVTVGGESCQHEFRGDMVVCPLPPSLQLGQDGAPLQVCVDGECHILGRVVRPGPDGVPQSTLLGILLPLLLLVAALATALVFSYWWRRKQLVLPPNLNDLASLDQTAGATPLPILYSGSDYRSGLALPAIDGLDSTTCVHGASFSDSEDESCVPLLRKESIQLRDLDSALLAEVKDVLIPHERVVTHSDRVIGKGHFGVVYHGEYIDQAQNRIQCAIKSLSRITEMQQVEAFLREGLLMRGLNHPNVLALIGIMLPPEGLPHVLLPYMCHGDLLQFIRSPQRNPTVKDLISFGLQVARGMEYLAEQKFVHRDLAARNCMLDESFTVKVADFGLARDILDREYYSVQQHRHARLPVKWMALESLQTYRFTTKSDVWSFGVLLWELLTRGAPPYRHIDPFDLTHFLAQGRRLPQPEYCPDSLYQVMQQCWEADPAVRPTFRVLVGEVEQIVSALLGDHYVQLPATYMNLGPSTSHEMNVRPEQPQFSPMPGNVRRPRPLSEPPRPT
Assay [9] concerns the target Receptor tyrosine-protein kinase erbB-2 (Homo sapiens, UniProt P04626). Briefly: Residual activity of ERBB2 at 0.1 uM by microplate scintillation counting.
In assay [10] the target is Casein kinase I isoform gamma-2 (Homo sapiens) (UniProt P78368). Briefly: Residual activity of CK1gamma2 at 0.1 uM by microplate scintillation counting.
Assay [11] deals with Wee1-like protein kinase (Homo sapiens) (UniProt P30291). Briefly: Residual activity of WEE1 at 0.1 uM by microplate scintillation counting.
The target in assay [12] is Mitogen-activated protein kinase 8 (Homo sapiens) (UniProt P45983). Briefly: Residual activity of JNK1 at 1 uM by microplate scintillation counting.
Assay [13] addresses Angiopoietin-1 receptor (Homo sapiens, UniProt Q02763). As to the kind of experiment: Residual activity of TIE2 at 10 uM by microplate scintillation counting.
Assay [14] concerns the target Non-receptor tyrosine-protein kinase TYK2 (Homo sapiens) (UniProt P29597). Briefly: Residual activity of TYK2 at 1 uM by microplate scintillation counting.
For assay [15], the target named is Serine/threonine-protein kinase WNK3 (Homo sapiens) (UniProt Q9BYP7). As to the kind of experiment: Residual activity of WNK3 at 0.1 uM by microplate scintillation counting.
Sequence of Serine/threonine-protein kinase WNK3 (Homo sapiens) (Q9BYP7 whole entry): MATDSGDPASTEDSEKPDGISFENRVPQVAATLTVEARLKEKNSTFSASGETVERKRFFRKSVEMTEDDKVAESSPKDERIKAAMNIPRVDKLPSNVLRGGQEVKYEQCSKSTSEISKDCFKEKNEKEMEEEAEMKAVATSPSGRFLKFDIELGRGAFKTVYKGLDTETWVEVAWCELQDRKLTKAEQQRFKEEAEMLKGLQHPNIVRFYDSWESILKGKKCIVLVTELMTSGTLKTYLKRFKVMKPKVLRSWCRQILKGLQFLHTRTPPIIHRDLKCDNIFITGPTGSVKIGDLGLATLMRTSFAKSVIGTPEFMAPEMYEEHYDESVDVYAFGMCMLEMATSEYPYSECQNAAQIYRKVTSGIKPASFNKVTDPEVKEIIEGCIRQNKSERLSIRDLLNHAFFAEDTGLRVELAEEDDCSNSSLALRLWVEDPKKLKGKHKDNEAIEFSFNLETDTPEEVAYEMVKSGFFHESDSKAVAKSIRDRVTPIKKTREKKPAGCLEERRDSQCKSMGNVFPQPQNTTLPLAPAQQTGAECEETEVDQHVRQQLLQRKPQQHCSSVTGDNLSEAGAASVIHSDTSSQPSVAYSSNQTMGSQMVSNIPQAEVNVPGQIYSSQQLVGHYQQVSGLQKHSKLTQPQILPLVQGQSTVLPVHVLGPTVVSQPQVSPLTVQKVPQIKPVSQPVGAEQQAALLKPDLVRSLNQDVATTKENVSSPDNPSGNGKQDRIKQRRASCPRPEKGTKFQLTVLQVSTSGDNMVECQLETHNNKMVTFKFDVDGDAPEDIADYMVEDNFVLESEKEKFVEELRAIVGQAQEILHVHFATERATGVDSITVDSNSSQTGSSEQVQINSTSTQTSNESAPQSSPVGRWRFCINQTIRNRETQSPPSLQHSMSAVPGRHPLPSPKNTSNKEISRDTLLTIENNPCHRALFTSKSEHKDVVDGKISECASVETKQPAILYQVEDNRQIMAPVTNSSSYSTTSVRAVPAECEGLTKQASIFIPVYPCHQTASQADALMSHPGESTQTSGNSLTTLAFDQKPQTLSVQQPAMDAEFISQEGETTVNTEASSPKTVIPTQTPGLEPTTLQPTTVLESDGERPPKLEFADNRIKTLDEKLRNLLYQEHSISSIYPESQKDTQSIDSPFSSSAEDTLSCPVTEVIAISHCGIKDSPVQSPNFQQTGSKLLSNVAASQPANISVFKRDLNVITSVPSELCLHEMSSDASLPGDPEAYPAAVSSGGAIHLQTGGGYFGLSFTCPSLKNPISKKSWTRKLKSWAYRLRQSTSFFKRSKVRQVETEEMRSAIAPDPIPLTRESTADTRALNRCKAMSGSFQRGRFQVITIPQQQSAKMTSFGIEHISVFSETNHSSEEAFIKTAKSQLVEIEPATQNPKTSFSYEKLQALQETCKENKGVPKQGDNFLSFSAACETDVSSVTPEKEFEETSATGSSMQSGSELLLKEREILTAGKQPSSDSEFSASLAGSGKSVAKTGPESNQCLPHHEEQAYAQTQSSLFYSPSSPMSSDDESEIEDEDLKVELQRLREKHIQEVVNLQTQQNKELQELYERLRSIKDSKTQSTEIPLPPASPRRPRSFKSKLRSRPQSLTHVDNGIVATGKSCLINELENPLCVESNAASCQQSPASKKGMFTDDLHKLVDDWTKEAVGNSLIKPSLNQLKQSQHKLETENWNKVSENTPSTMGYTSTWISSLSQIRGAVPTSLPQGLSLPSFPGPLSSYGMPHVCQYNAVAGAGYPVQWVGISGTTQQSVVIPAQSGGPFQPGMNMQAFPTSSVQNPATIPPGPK

Sequence of Angiopoietin-1 receptor (Q02763 whole entry): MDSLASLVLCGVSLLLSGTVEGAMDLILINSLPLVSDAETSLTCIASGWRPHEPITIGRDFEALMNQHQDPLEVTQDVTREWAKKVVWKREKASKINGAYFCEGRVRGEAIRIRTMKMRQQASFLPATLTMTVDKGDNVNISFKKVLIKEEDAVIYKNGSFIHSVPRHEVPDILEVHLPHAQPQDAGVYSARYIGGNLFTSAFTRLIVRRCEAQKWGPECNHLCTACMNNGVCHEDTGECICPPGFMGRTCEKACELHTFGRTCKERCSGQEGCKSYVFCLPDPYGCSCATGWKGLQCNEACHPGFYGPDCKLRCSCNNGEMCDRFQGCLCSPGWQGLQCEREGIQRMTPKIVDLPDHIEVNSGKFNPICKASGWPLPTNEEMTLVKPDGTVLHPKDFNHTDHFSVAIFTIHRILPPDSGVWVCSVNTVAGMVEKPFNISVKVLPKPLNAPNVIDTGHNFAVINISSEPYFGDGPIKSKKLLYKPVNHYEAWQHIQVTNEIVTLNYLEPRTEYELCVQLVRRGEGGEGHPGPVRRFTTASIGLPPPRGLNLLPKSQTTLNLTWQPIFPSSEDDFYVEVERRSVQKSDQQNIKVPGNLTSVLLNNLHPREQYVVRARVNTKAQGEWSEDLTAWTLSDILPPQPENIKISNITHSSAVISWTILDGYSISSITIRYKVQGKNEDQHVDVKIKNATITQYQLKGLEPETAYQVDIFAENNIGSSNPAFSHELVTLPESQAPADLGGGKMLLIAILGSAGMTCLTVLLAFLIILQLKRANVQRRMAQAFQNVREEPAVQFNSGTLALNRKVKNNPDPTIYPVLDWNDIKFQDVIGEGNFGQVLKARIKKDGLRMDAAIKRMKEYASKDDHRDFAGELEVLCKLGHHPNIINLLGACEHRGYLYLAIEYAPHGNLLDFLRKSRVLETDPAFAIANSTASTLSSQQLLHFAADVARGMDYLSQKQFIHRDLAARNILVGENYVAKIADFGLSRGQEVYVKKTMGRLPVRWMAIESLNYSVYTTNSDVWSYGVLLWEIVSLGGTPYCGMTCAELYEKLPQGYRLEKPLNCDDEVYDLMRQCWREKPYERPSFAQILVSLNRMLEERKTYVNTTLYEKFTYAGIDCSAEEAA

Turning to `COc1cc2c(Oc3ccc(-c4nc5ccccc5s4)cc3F)ncnc2cc1OCCCN1CCN(C)CC1`, the residual activity was 87% in assay [1]; 84% in [2]; 96% in [3]; 95% in assay [4]; 167% in assay [5]; 86% in [6]. In addition, the residual activity in assay [7] is 114%; in assay [8], 35%; in assay [9], 97%; in [10] it was 90%; in assay [11], 98%; in assay [12] it was 154%. Also, the residual activity amounted to 4% in assay [13], 92% in assay [14] and 84% in assay [15].
`COc1cc2c(Oc3ccc(-c4nc5ccccc5s4)cc3)ncnc2cc1OCCCN1CCN(C)CC1`: the residual activity in [1] is 95%; in [2], 97%; in [3] it was 100%; in [4] it was 93%; in [5], 193%; in [6], 136%. In addition, the residual activity is 127% in [7]; 48% in assay [8]; 103% in assay [9]; 93% in [10]; 118% in [11]; 142% in assay [12]. In addition, the residual activity in [13] was found to be 3%; in assay [14] it was 93%; in assay [15], 90%.
For `COc1cc2c(Oc3ccc(-c4nc5ccccc5s4)cc3)ncnc2cc1OCCCN1CCCC1`, the residual activity in assay [1] was found to be 83%; in assay [2] it was 90%; in assay [3] it was 96%; in [4], 104%; in assay [5] it was 140%; in assay [6], 113%. Also, the residual activity in [7] is 127%; in assay [8] it was 60%; in assay [9], 112%; in [10], 93%; in assay [11] it was 100%; in assay [12], 142%. Moreover, the values for the residual activity in assay [13], in [14] and in assay [15] were 4%, 90% and 94%, respectively.
